Assays:
[1] = test system: HeLa cells; assay: Cell growth inhibition assay, HeLa; format: cell-based, human; settings: Homo sapiens, 96 h, growth up to 4 days
Source text: (§1) Human epitheloid cervical carcinoma HeLa cells, human breast adenocarcinoma MCF7 and MDA-MB-231cells, human hepatocellular carcinoma HepG2 cells, human colon adenocarcinoma HT-29 cells, and human colorectal carcinoma HCT-116 cells were purchased from ATCC® and maintained in DMEM medium. Human prostate carcinoma PC-3 cells (purchased from ATCC®), human gastric carcinoma SNU-484 and SNU-601(obtained from Korean Cell Line Bank (KCLB)), human leukemia K-562 and HL-60 cells (purchased from ATCC®), immortalized human prostate epithelial 267B1cells, and immortalized human embryonic lung fibroblast MRC5CV1 cells were maintained in RPMI 1640 medium whereas immortalized retinal pigment epithelial hTERT RPE-1 cells (purchased from ATCC®) were maintained in DMEM/F12 medium. All cell lines were cultured in media supplemented with 10% fetal bovine serum, 100 U/ml penicillin, and […] streptomycin at 37°C in a 5% CO2 incubator.
(§2) Cells were seeded at the appropriate amount (1–2×10^3 cells) in triplicate in 96-well plates for 24 h and then treated with various concentrations of STK295900. Cell growth was determined by using EZ-CyTox cell viability assay kit (Daeil Lab. Service, Seoul, Korea). Ten microliters of WST solution were added to the treated cells at 24, 48, 72, and 96 h. Cells were further incubated at 37°C for 2 h and the absorbance was measured at 450 nm.

[2] = test system: MCF7 cells; assay: Cell growth inhibition assay, MCF7; format: cell-based, human; settings: Homo sapiens, MCF7, 96 h, growth up to 4 days
Source text: as §1, §2

[3] = test system: MDA-MB-231 cells; assay: Cell growth inhibition assay, MDA-MB-231; format: cell-based; settings: Homo sapiens, 96 h; Table 1; MDA-MB-231, breast adenocarcinoma; growth up to 4 days
Source text: as §1, §2

[4] = test system: HCT-116 cells; assay: Cell growth inhibition assay, HCT-116; format: cell-based; settings: Homo sapiens, 96 h, Table 1, growth up to 4 days
Source text: as §1, §2

[5] = test system: PC-3 cells; assay: Cell growth inhibition assay, PC-3; format: cell-based; settings: Homo sapiens, 96 h; Table 1; PC-3, prostate carcinoma; growth up to 4 days
Source text: as §1, §2

[6] = test system: SNU-601 cells; assay: Cell growth inhibition assay, SNU-601; format: cell-based; settings: Homo sapiens, 96 h; Table 1; SNU-601, gastric carcinoma; growth up to 4 days
Source text: as §1, §2

[7] = test system: hTERT RPE-1 cells; assay: Cell growth inhibition assay, hTERT RPE-1; format: cell-based, human; settings: Homo sapiens, hTERT-RPE1, 96 h; Table 2 comparison; hTERT RPE-1, non-cancer; growth up to 4 days
Source text: as §1, §2

[8] = test system: 267B1 cells; assay: Cell growth inhibition assay, 267B1; format: cell-based, human; settings: Homo sapiens, 96 h; Table 2 comparison; 267B1, non-cancer; growth up to 4 days
Source text: as §1, §2

[9] = test system: MRC5CV1 cells; assay: Cell growth inhibition assay, MRC5CV1; format: cell-based, human; settings: Homo sapiens, 96 h; Table 2 comparison; MRC5CV1, non-cancer; growth up to 4 days
Source text: as §1, §2

[10] = test system: cancer (HeLa, MCF7, HepG2, and HT-29) and non-cancerous cell lines (hTERT RPE-1, 267B1, and MRC5CV1); assay: Cell growth inhibition assay, cancer and non-cancerous cell lines compared; format: cell-based, human; settings: cancer (HeLa, MCF7, HepG2, HT-29) vs non-cancer (hTERT RPE-1, 267B1, MRC5CV1)
Source text: as §1, §2

[11] = biological target: human topoisomerase 2α (Homo sapiens, UniProt P11388); assay: Supercoiled DNA relaxation assay for topoisomerase 2α; format: biochemical; settings: pBR322, 37°C, 30 min
Experimental: After incubation, the reaction was terminated by addition of 2 µl of 10% SDS. The reaction mixtures were treated with 50 µg/ml proteinase K for 30 min at 37°C and then DNA was extracted with CIA (chloroform:isoamyl alcohol, 24∶1). Samples were resolved by electrophoresis on a 1% agarose gel. After staining the electrophoresed gel with ethidium bromide, DNA bands were visualized by UV light and photographed on Gel Doc XR.
(§3) Supercoiled DNA relaxation assay for (A) topoisomerase 1 (Top 1) and (B) topoisomerase 2 (Top 2). Supercoiled pBR322 plasmid DNA was incubated at 37°C for 30 min with Top 1 enzyme (A) or Top 2α (B) in the presence of various concentrations of indicated compounds. DNA samples were separated by electrophoresis on a 1% agarose gel, stained with ethidium bromide, and visualized by UV light. (−), supercoiled DNA alone; oc, open circular; sc, supercoiled. […] HeLa cells were pretreated with 10 µM of STK295900 for 30 min and then incubated with the indicated concentrations of camptothecin for 1 h. Treated cells were lysed and subjected to immunoblot analyses with antibody against γ-H2A.X. β-actin was used as a loading control. […] HeLa cells were pretreated with STK295900 at 10, 20, 30, or 50 µM or ICRF-193 at 10 µM for 30 min. […] Treated cells were then lysed and subjected to immunoblot analyses with antibody against γ-H2A.X. β-actin was used as a loading control.

[12] = test system: HeLa cells; assay: Antagonistic effect on Top poison-induced DNA damage (γ-H2A.X immunoblot); format: cell-based, human
Experimental: Cells were lysed with cold RIPA buffer (50 mM Tris-HCl pH 8.0, 150 mM NaCl, 1% NP-40, 0.5% sodium deoxycholate, 0.1% SDS) containing freshly added protease inhibitor, phosphatase inhibitor (SIGMA), 1 mM DTT, and 1 mM Na3VO4 on ice for 1 h. Whole cell lysates were centrifuged at 15,000 rpm for 20 min and then the supernatant was transferred into a new tube. An appropriate amount of cell lysate was subjected to SDS-PAGE. Then the resolved proteins were transferred onto a PVDF membrane (Bio-Rad) for immunoblot analyses with specific antibodies. The proteins were detected using chemiluminescence solution (Thermo Scientific, Rockford, IL).
as §3
The lysates were subjected to immunoblot analyses with γ-H2A.X antibody.

Chain of human topoisomerase 2α (P11388 whole entry): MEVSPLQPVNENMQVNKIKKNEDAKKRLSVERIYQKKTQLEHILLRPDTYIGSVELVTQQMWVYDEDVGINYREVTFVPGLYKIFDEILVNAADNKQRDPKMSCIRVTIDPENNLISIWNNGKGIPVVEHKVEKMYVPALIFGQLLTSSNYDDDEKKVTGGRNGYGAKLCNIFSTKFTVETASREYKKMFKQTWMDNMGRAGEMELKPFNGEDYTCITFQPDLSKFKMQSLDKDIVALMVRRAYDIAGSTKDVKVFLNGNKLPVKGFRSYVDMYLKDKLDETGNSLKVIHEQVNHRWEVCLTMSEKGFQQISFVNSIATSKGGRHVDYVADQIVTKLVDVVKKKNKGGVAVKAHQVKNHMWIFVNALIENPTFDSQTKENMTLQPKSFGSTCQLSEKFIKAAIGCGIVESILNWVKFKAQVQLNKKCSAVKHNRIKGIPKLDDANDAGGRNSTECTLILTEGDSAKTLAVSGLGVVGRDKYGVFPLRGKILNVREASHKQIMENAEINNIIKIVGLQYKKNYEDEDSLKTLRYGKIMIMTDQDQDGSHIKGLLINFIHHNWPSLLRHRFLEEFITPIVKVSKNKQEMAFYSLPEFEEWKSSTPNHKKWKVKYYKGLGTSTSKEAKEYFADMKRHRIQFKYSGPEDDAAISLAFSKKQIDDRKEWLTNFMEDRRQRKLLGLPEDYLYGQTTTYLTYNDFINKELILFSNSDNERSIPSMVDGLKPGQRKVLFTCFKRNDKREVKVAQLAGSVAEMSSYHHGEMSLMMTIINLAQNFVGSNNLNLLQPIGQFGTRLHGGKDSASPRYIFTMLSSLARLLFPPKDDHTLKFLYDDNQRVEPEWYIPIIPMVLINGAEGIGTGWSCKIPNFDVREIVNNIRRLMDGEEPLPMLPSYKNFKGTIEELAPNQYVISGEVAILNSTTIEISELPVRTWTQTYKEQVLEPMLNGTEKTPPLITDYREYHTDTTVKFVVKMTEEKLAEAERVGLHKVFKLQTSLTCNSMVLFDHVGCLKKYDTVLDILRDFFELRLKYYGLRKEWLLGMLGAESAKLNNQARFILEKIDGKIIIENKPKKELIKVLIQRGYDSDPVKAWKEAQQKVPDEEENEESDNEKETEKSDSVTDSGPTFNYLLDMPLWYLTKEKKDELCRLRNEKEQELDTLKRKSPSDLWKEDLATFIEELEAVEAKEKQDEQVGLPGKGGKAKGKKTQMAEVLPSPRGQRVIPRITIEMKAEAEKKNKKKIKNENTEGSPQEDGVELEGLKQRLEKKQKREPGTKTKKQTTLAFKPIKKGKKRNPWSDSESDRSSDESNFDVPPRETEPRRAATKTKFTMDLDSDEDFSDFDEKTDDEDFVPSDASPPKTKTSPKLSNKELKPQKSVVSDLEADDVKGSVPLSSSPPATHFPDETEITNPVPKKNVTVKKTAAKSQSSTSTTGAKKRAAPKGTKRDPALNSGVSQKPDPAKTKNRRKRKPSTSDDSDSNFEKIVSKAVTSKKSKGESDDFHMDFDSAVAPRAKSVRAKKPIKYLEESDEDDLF

With `Nc1ccc(-c2nc3ccc(-c4ccc5nc(-c6ccc(N)cc6)[nH]c5c4)cc3[nH]2)cc1` [STK295900, 4,4′-(3H,3′H-5,5′-bibenzimidazole-2,2′-diyl)dianiline] the IC50 ([1]; Table 1, cervical carcinoma) was 520 nM, the IC50 ([1]; Table 2 comparison) was 640 nM and the IC50 ([2]; Table 1, MCF7, breast adenocarcinoma) was 60 nM. It also gave an IC50 ([2]; Table 2 comparison, MCF7) of 40 nM, an IC50 [3] of 510 nM and an IC50 [4] of 2830 nM. It also gave an IC50 [5] of 2720 nM, an IC50 [6] of 2210 nM and an IC50 [7] of 3430 nM. For the same compound, the IC50 [8] was 1610 nM, the IC50 [9] was 950 nM and the “selectivity of toxicity, cancer versus non-cancer cells” value [10] was “selective toxicity against cancer cells”. The “Top 2α-mediated DNA relaxation” value [11] was “inhibited Top 2α-mediated DNA relaxation”, the “effect of pretreatment on etoposide-induced γ-H2A.X” value ([12]; pretreated up to 50 µM for 30 min, then 10 µM etoposide 1 h) was “could not prevent” and the “effect of pretreatment on camptothecin-induced γ-H2A.X” value ([12]; pretreated with 10 µM for 30 min, then camptothecin 1 h) was “dramatically reduced”.

Source: paper PMC3551932, “STK295900, a Dual Inhibitor of Topoisomerase 1 and 2, Induces G2 Arrest in the Absence of DNA Damage” (PLoS ONE, 2013)
